# How the values were obtained:
# [1] = system: choroid plexus epithelial cells
# Experimental: (§1) To assess CSF secretion by cultured CPEC, cells were cultured on permeable, polyester six-well Transwell® filter plates coated with 5 μg/ml laminin for 13 to 15 DIC. […] Following a 1 h preincubation with CSFB, 1.0 ml 1.0 μM 67 kDa fluorescent-dextran (FITC-dextran) in CSFB was added to both apical and basolateral chambers and secreted CSF volume (in μl/cm^2) was calculated as a function of FITC-dextran concentration change.
# (§2) The permeability coefficient P of test compounds was calculated according to equation (2):
# (§3) P=dc/dt×Vacceptor/A×c0 (2) MathType@MTEF@5@5@+=feaafiart1ev1aaatCvAUfKttLearuWrP9MDH5MBPbIqV92AaeXatLxBI9gBaebbnrfifHhDYfgasaacH8akY=wiFfYdH8Gipec8Eeeu0xXdbba9frFj0=OqFfea0dXdd9vqai=hGuQ8kuc9pgc9s8qqaq=dirpe0xb9q8qiLsFr0=vr0=vr0dc8meaabaqaciaacaGaaeqabaqabeGadaaakeaacqWGqbaucqGH9aqpdaWcaaqaaiabdsgaKjabdogaJbqaaiabdsgaKjabdsha0baacqGHxdaTdaWcaaqaaiabdAfawnaaBaaaleaacqWGHbqycqWGJbWycqWGJbWycqWGLbqzcqWGWbaCcqWG0baDcqWGVbWBcqWGYbGCaeqaaaGcbaGaemyqaeKaey41aqRaem4yam2aaSbaaSqaaiabicdaWaqabaaaaOGaaCzcaiaaxMaadaqadaqaaiabikdaYaGaayjkaiaawMcaaaaa@4C1D@
# (§4) with dc/dt representing the change of the acceptor concentration over time, Vacceptor the acceptor volume, A the membrane surface area and c0 the initial donor concentration. Concentrations were assessed by analysis in a fluorescent plate reader (Ascent Fluoroscan) for fluorescent-labelled compounds.
# Mrp1 [2] = system: Mrp1; set-up: method as in PMID 10675353; details: animals lacking Mrp1 ref 49; cited from earlier work
# Mrp1 [3] = molecular target: Mrp1 (Sus scrofa, UniProt K9IVJ9); details: 2 μM FL-MTX, CPEC; direction taken from paragraph and Figure 10B
# [4] = system: choroid plexus epithelial cells; assay: Permeability across choroid plexus epithelial cell (CPEC) monolayers on Transwell filters; details: apical versus basolateral direction
# Experimental: as §1, §2, §3, §4
# [5] = system: intact choroid plexus tissue; details: intact choroid plexus tissue from guinea pig ref 47; cited from earlier work
# Mrp1 (Sus scrofa, UniProt K9IVJ9), sequence (K9IVJ9 1-1532): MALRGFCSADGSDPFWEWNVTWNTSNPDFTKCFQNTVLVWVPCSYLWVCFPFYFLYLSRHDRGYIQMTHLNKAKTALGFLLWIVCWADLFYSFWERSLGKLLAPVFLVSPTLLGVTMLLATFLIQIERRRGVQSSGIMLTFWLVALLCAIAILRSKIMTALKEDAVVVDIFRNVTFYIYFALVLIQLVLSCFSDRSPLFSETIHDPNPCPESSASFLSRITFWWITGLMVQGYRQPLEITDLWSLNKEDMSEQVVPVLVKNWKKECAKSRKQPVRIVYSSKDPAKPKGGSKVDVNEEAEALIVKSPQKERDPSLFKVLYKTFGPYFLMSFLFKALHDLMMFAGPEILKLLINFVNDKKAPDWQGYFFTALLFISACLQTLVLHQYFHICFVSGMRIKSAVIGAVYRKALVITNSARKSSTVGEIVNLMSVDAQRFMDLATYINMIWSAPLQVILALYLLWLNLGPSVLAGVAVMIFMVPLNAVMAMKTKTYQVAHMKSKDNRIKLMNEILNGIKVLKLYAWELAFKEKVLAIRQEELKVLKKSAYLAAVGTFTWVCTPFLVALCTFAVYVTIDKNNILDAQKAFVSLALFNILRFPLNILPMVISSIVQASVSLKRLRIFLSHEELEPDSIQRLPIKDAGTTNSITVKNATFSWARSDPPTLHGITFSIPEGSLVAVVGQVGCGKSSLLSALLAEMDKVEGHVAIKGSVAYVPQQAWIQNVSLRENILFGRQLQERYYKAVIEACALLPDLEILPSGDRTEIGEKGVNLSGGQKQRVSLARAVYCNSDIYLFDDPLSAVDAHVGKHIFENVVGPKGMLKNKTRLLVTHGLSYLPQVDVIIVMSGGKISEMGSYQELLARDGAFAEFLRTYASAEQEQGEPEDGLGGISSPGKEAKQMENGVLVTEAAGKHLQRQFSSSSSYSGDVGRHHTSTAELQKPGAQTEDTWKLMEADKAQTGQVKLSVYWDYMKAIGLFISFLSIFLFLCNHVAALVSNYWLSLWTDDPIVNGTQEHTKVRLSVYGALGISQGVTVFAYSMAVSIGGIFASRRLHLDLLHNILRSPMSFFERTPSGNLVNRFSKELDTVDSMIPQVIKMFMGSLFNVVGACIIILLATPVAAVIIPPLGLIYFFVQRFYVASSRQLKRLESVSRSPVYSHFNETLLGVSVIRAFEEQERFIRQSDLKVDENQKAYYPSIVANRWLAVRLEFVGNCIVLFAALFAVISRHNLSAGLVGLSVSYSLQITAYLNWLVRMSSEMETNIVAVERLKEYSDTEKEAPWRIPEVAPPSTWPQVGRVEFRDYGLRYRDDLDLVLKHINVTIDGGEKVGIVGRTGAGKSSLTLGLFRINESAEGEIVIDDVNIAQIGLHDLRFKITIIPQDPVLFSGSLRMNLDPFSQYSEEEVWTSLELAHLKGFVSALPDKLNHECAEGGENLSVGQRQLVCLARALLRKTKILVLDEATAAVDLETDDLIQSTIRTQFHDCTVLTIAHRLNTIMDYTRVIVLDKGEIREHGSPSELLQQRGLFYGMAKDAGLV
smiles,measurement,setting,value
O=C(O)c1ccc2c(c1)C(=O)OC21c2ccc(O)cc2Oc2cc(O)ccc21 [5-carboxyfluorescein],Papp (apparent permeability coefficient),[1],45 ×10⁻⁶ cm/s
same,Papp with opened tight junctions versus intact monolayer,[1],nearly doubling
COc1cc([C@@H]2c3cc4c(cc3[C@@H](O[C@@H]3O[C@@H]5CO[C@@H](C)O[C@H]5[C@H](O)[C@H]3O)[C@H]3COC(=O)[C@H]23)OCO4)cc(OC)c1O [etoposide],accumulation in CSF,Mrp1 [2],increased accumulation
Nc1ccc(C(=O)NCC(=O)O)cc1 [p-aminohippuric acid],effect on FL-MTX transport from the basolateral to the apical side,Mrp1 [3],did not significantly affect
CCCN(CCC)S(=O)(=O)c1ccc(C(=O)O)cc1 [probenecid],effect on FL-MTX transport from the basolateral to the apical side,Mrp1 [3],did not significantly affect
COC(=O)c1ccccc1-c1c2ccc(=N)cc-2oc2cc(N)ccc12 [rhodamine 123],preferred / directed transport across CP epithelial cells,[4],no directed transport
CC[C@]1(O)C[C@@H]2CN(CCc3c([nH]c4ccccc34)[C@@](C(=O)OC)(c3cc4c(cc3OC)N(C)[C@H]3[C@@](O)(C(=O)OC)[C@H](OC(C)=O)[C@]5(CC)C=CCN6CC[C@]43[C@@H]65)C2)C1 [vinblastine],influence on uptake of the Pgp substrate ritonavir,[5],not influenced

# Reference: publication PMC1774582, “Choroid plexus epithelial monolayers – a cell culture model from porcine brain” (Cerebrospinal Fluid Research, 2006)
